Test results from US11779602B2, “Methods of use for CAR T cells” (ENDOCYTE, INC., priority 2018, dated 2023).

Tested on: FR+ (KB, MDA-MB-231, HOS-FRα^fLuc, THP1-FRβ) tumor cell lines
Assay: CAR-T cell exhaustion markers and target cell apoptosis in co-culture with EC17-preloaded targets
Type: cell-based, human
Settings: EC17 pre-loading 0.1 or 10 nM, E/T 1:2, day 2
Method: To study CAR-T cell activation in the presence of FR+ tumor cell targets (FIGS. 53A-D), co-culture experiments were initially carried out with MDA-MB-231, THP1-FRβ and HOS-FRα. […] After 24 hours of co-culture, the surface expression of T cell activation markers CD69, CD137 (4-1BB), and PD1 were analyzed by flow cytometry. For T cell exhaustion studies (FIGS. 54A-C), FR+ (KB, MDA-MB-231, HOS-FRα^fLuc, THP1-FRβ) and FR-negative (HOS-143b^fLuc, THP1-FG12) tumor cell lines were used as targets. Here, target cells were incubated on day 0 without or with 0.1 and 10 nM of EC17 for 30 min at 37° C. and the status of EC17 “pre-loading” was assessed by counterstaining cell-surface EC17 with an anti-FITC antibody (FIG. 61A). Three days later, the surface expression of PD1, LAG3, and TIM3 inhibitor receptors on co-cultured CAR-T cells were analyzed and higher frequencies of double- and triple-positive cells were considered approaching an exhausted phenotype.
To examine antigen-dependent CAR-T cell activation, MDA-MB-231, THP1-FRβ and HOS-FRα cells were preloaded with 100 nM EC17 over 30 min. […] After 24 hours of co-culture, we measured the surface expression of T cell activation markers CD69, CD137 (4-1BB) and PD1 (FIGS. 53A-D). […] Three days later, co-cultured CAR-T cells were measured for upregulation and co-expression of T cell activation/exhaustion markers PD1, LAGS and TIM3. […]

NC1=NC2N=CC(CNc3ccc(C(=O)N[C@@H](CCC(=O)NCCNC(=S)Nc4ccc(-c5c6ccc(=O)cc-6oc6cc(O)ccc56)c(C(=O)O)c4)C(=O)O)cc3)=NC2C(=O)N1 (stereo partly shown) [EC17, FA-(γ)-ethylenediamine-FITC]
target cell apoptosis (Annexin V+): dose-dependent apoptosis (Annexin V+) was seen in all FR+ tumor cell lines
